Columns and labels:
Type in all cases: in vivo, Wistar strain male rats
[1] = system: water-immersion stress ulcer; experiment: Antiulcer activity against water-immersion stress ulcer; settings: rats; for Water-Immersion Stress Ulcer Ulcer Index: 100 mg/kg p.o. 30 min before 6 h water immersion at 22°±1° C.; for inhibition in vivo at 100 mg/kg: Rattus norvegicus, po, 6 h, read-out: Water-Immersion Stress Ulcer Inhibition Rate
Procedure: A suspension of each test compound in a 5% gum arabic aqueous solution was orally given to Wistar strain male rats (at the age of 7 to 8 weeks, weighing 180 to 250 g; 7-9 rats in the group administered with the test compound; 10-16 rats in the control group) fasted for 24 hours at a dose of 100 mg of the test compound/5 ml/kg. Thirty minutes after administration, the animal was immersed in a water bath at 22°±1° C. up to the xiphisternum using a stress cage made by Tokyo University, Faculty of Pharmacology, to apply a stress load for 6 hours. After applying the stress load, the rats had the cervical vertebra dislocated to death. Then, the stomach was excised and, spotted and linear erosion and a long diameter of any ulcer were microscopically measured to determine an ulcer index and an inhibition rate.
(§1) In the control group, a 5% gum arabic aqueous solution was orally administered at a dose of 5 ml/kg.

[2] = system: aspirin-induced ulcer; experiment: Antiulcer activity against aspirin-induced ulcer model; settings: rats, 100 mg/kg p.o. 30 min before aspirin 200 mg/kg p.o.; for Aspirin Induced Ulcer Ulcer Index: stomach excised 7 h after aspirin; for inhibition in vivo at 100 mg/kg: Rattus norvegicus, po, 7 h, read-out: Aspirin Induced Ulcer Inhibition Rate
Procedure: Thirty minutes after administration, aspirin was further orally administered at a dose of 200 mg/kg. Seven hours after administration of aspirin, the stomach was excised under ethereal anesthesia and spotted and linear erosion and a long diameter of any ulcer were microscopically measured to determine an ulcer index and an inhibition rate.
as §1

[3] = system: gastric juice secretion; experiment: Gastric juice secretion inhibition activity (pyloric ligature); settings: rats, 100 mg/kg p.o.; for Volume (gastric juice): pyloric ligature 30 min later, gastric juice collected after 4 h; for pH (gastric juice): first part of Table 5; for inhibition in vivo at 100 mg/kg: Rattus norvegicus, po, read-out: Volume Inhibition Rate
Procedure: A suspension of each test compound in a 5% gum arabic aqueous solution was orally given to Wistar strain male rats (at the age of 7 to 8 weeks, weighing 180 to 250 g; 7-9 rats in the group administered with the test compound; 14-17 rats in the control group) fasted for 24 hours at a dose of 100 mg of the test compound/5 ml/kg. Thirty minutes after administration, pyloric ligature was made under ethereal anesthesia. Four hours thereafter, the stomach was excised under ethereal anesthesia to collect gastric juice. The collected gastric juice was centrifuged (2500 rpm) at 4° C. for 10 minutes. After the supernatant was collected, the amount of the gastric juice and its pH were measured using a pH meter. Furthermore, the amount of free hydrochloric acid and the total acidity were measured with Topfer reagent and phenolphthalein reagent, respectively. Using a part of the gastric juice, pepsin output in the gastric juice was measured using casein as a substrate in a manner similar to the method of Anson et al.
as §1

[4] = 100 mg/kg p.o. 30 min before 6 h water immersion, vs control group
[5] = 4 h, pyloric ligature, 4 h, vs control group

Compound	Water-Immersion Stress Ulcer Ulcer Index [1] [mm^2]	Water-Immersion Stress Ulcer Inhibition Rate [1, 4] [%]	Aspirin Induced Ulcer Ulcer Index [2] [mm^2]	Aspirin Induced Ulcer Inhibition Rate ([2]; vs control group) [%]	Volume (gastric juice) [3] [mL]	Acidity ([3]; pyloric ligature, 4 h) [mEq/l]	Free HCl ([3]; pyloric ligature, 4 h) [mEq/l]	Pepsin Activity ([3]; pyloric ligature, 4 h) [units/ml]	Pepsin Output ([3]; pyloric ligature, 4 h) [units/hr]	pH (gastric juice) ([3]; pyloric ligature, 4 h)	Volume Inhibition Rate ([3]; pyloric ligature, 4 h, vs control group) [%]	inhibition in vivo at 100 mg/kg [1, 4] [%]	inhibition in vivo at 100 mg/kg ([2]; vs control group) [%]	inhibition in vivo at 100 mg/kg [3, 5] [%]
2-Methyl-3-thenoyloxymethylimidazo[2,1-b]benzothiazole [Example 19]	11.3 ± 2.6	51.5	63.7 ± 8.1	4.6	4.9 ± 0.5	78.9 ± 2.7	48.6 ± 3.4	99.6 ± 2.2	122.8 ± 14.4	1.56 ± 0.10	18.3			
CCCC(O)c1c(C)nc2sc3ccccc3n12 (stereo not drawn) [Example 5, 3(α-Hydroxy)butyl-2-methylimidazo[2,1-b]benzothiazole]	20.4 ± 4.2		43.8 ± 10.3		6.7 ± 0.7	45.0 ± 5.6	10.4 ± 2.1	86.2 ± 1.9	139.6 ± 16.7	2.17 ± 0.12		5.1	23.7	-13.6
Cc1nc2sc3ccccc3n2c1C(O)c1ccccc1 (stereo not drawn) [Example 7, 3(αHydroxy)benzyl-2-methylimidazo[2,1-b]benzothiazole]	17.9 ± 4.5		39.6 ± 3.7		5.4 ± 0.6	69.1 ± 7.0	39.7 ± 5.0	99.5 ± 4.1	135.0 ± 18.1	1.65 ± 0.13		16.7	31	8.5
COc1ccc2c(c1)sc1nc(C)c(CO)n12 [Example 9, 7-Methoxy-2-methylimidazo[2,1-b]benzothiazole-3-methanol]	6.4 ± 1.2		64.8 ± 7.5		5.3 ± 0.9	76.2 ± 4.3	42.6 ± 5.2	102.2 ± 3.9	135.5 ± 22.7	1.55 ± 0.08		51.5	15	15.9
COc1cc2c(sc3nc(C)c(CO)n32)c(OC)c1OC [Example 10, 6,7,8-Trimethoxy-2-methylimidazo[2,1-b]benzothiazole-3-methanol]	9.6 ± 2.1		53.7 ± 8.3		5.2 ± 0.5	87.3 ± 3.5	50.4 ± 3.2	103.5 ± 1.8	133.7 ± 10.8	1.47 ± 0.03		27.3	29.5	17.5
COc1ccccc1C(=O)OCc1c(C)nc2sc3ccccc3n12 [Example 18]	13.5 ± 4.1		45.3 ± 10.4		8.1 ± 0.8	82.1 ± 5.0	51.7 ± 5.8	91.4 ± 3.3	186.6 ± 24.3	1.45 ± 0.06		42.1	32.2	-35

Reference: patent publication US4968708A, “Imidazo[2,1-B]benzothiazole compounds and antiulcer compositions containing the same” (priority 1988, dated 1990)
